# Results taken from ChEMBL document CHEMBL4616632, “Discovery of Cyclic Boronic Acid QPX7728, an Ultrabroad-Spectrum Inhibitor of Serine and Metallo-β-lactamases” (J Med Chem, 2020).
# Tests used:
# Pseudomonas aeruginosa [1] = assay: Potentiation of cefepime-induced antibacterial activity against Pseudomonas aeruginosa assessed as cefepime MIC90 at 8 ug/ml by broth microdilution method (Rvb 32 ug/ml); format: functional
# Acinetobacter baumannii = assay: Potentiation of cefepime-induced antibacterial activity against carbapenem-resistant Acinetobacter baumannii assessed as cefepime MIC50 at 8 ug/ml by broth microdilution method (Rvb > 32 ug/ml); format: functional
# [2] = Clearance in rat at 1000 mg/kg, po administered via gavage by HPLC/MS analysis; format: ADME, organism-based; settings: in vivo
# [3] = Half life in rat at 300 mg/kg, po administered via gavage by HPLC/MS analysis; format: ADME, organism-based; settings: in vivo
# [4] = Cmax in rat at 300 mg/kg, iv administered as infusion for 0.5 hrs by HPLC/MS analysis; format: ADME, organism-based; parameters: dose 300 mg/kg, route intravenous; settings: in vivo
# Enterobacteriaceae [5] = assay: Inhibition of NDM/VIM in carbapenem-resistant Enterobacteriaceae assessed as potentiation of meropenem-induced antibacterial activity by measuring meropenem MIC90 at 8 ug/ml by broth microdilution method (Rvb > 32 ug/ml)
# [6] = Toxicity in rat at 30 to 1000 mg/kg, po administered via gavage; format: organism-based; settings: in vivo
# [7] = Oral bioavailability in rat at 300 to 1000 mg/kg in fasted condition by HPLC/MS analysis; format: ADME, organism-based; settings: in vivo
# Enterobacteriaceae [8] = assay: Potentiation of cefepime-induced antibacterial activity against carbapenem-resistant Enterobacteriaceae assessed as cefepime MIC50 at 8 ug/ml by broth microdilution method (Rvb > 32 ug/ml); format: functional
# [9] = Inhibition of […] OXA-48 using nitrocefin as substrate preincubated for 10 mins followed by substrate addition measured every 10 secs for 10 mins by spectrophotometrically analysis
# [10] = AUC in rat at 30 mg/kg, po administered via gavage by HPLC/MS analysis; format: ADME, organism-based; settings: in vivo
# [11] = Clearance in rat at 30 mg/kg, po administered via gavage by HPLC/MS analysis; format: ADME, organism-based; settings: in vivo
# Enterobacteriaceae [12] = assay: Inhibition of NDM/VIM in carbapenem-resistant Enterobacteriaceae assessed as potentiation of meropenem-induced antibacterial activity by measuring meropenem MIC50 at 8 ug/ml by broth microdilution method (reference value: 32 ug/ml)
# Pseudomonas aeruginosa [13] = assay: Potentiation of meropenem-induced antibacterial activity against Pseudomonas aeruginosa assessed as meropenem MIC90 at 8 ug/ml by broth microdilution method (reference value: 16 ug/ml); format: functional
# Escherichia coli = assay: Inhibition of Escherichia coli ECM6619 TEM-10 assessed as minimum concentration of compound needed to reduce the MIC of aztreonam to 4 ug/ml
# Enterobacteriaceae [14] = assay: Inhibition of OXA-48 in carbapenem-resistant Enterobacteriaceae assessed as potentiation of cefepime-induced antibacterial activity by measuring cefepime MIC90 at 8 ug/ml by broth microdilution method (Rvb > 32 ug/ml)
# Klebsiella pneumoniae [15] = assay: Potentiation of ceftolozane-induced antibacterial activity against carbapenem-resistant Klebsiella pneumoniae assessed as ceftolozane MIC90 at 8 ug/ml by broth microdilution method (Rvb > 32 ug/ml); format: functional
# [16] = Clearance in rat at 10 mg/kg, iv administered as infusion for 0.5 hrs by HPLC/MS analysis; format: ADME, organism-based; settings: in vivo
# [17] = Half life in rat at 10 mg/kg, iv administered as infusion for 0.5 hrs by HPLC/MS analysis; format: ADME, organism-based; settings: in vivo
# Enterobacteriaceae [18] = assay: Potentiation of ceftolozane-induced antibacterial activity against carbapenem-resistant Enterobacteriaceae assessed as ceftolozane MIC50 at 8 ug/ml by broth microdilution method (Rvb > 32 ug/ml); format: functional
# Klebsiella pneumoniae [19] = assay: (§1) Potentiation of meropenem-induced bacteriostatic activity against carbapenem-resistant Klebsiella pneumoniae KP1244 harboring KPC-3, SHV-11, and SHV-12 infected in Swiss-Webster mouse model of neutropenic thigh infection assessed as log change in bacterial count in thigh at 1 mg/kg, ip administered at 2 hrs interval for 24 hrs starting from 2 hr post infection and measured post last dose (reference value: 0.62 log10CFU); format: functional
# Klebsiella pneumoniae [20] = assay: Potentiation of meropenem-induced antibacterial activity against carbapenem-resistant Klebsiella pneumoniae assessed as meropenem MIC90 at 8 ug/ml by broth microdilution method (Rvb > 32 ug/ml); format: functional
# [21] = Cmax in rat at 30 mg/kg, po administered via gavage by HPLC/MS analysis; format: ADME, organism-based; parameters: dose 30 mg/kg, route oral; settings: in vivo
# [22] = Toxicity in rat assessed as clinical changes at 30 to 300 mg/kg, iv administered daily via infusion for 7 days; format: organism-based; settings: in vivo, 168 h
# [23] = Clearance in rat at 300 mg/kg, iv administered as infusion for 0.5 hrs by HPLC/MS analysis; format: ADME, organism-based; settings: in vivo
# Enterobacterales = assay: Potentiation of cefepime-induced antibacterial activity against Enterobacterales assessed as cefepime MIC50 at 8 ug/ml by broth microdilution method (reference value: 32 ug/ml); format: functional
# Klebsiella pneumoniae [24] = assay: as §1, with “at 50” for “at 1”; format: functional
# [25] = Inhibition of mammalian elastase (unknown origin) using Suc-AAPA-pNA as substrate preincubated for 10 mins followed by substrate addition measured after 30 mins; parameters: species or system Homo sapiens
# [26] = Inhibition of recombinant Escherichia coli SHV-12 using nitrocefin as substrate preincubated for 10 mins followed by substrate addition measured every 10 secs for 10 mins by spectrophotometrically analysis
# [27] = biological target: Beta-lactamase OXA-23 (Acinetobacter baumannii) (UniProt Q9L4P2); assay: Inhibition of Acinetobacter baumannii AB1054 OXA-23 assessed as minimum concentration of compound needed to reduce the MIC of meropenem to 8 ug/ml
# Plasminogen = Plasminogen (Homo sapiens, UniProt P00747); assay: Inhibition of mammalian plasmin (unknown origin) using H-D-VLK-pNA as substrate preincubated for 10 mins followed by substrate addition measured after 30 mins
# Enterobacteriaceae [28] = assay: Inhibition of OXA-48 in carbapenem-resistant Enterobacteriaceae assessed as potentiation of ceftolozane-induced antibacterial activity by measuring ceftolozane MIC50 at 8 ug/ml by broth microdilution method (Rvb > 32 ug/ml)
# [29] = Half life in rat at 30 mg/kg, po administered via gavage by HPLC/MS analysis; format: ADME, organism-based; settings: in vivo
# [30] = Clearance in rat at 300 mg/kg, po administered via gavage by HPLC/MS analysis; format: ADME, organism-based; settings: in vivo
# Pseudomonas aeruginosa [31] = assay: Potentiation of cefepime-induced antibacterial activity against Pseudomonas aeruginosa assessed as cefepime MIC50 at 8 ug/ml by broth microdilution method (reference value: 4 ug/ml); format: functional
# [32] = Half life in rat at 1000 mg/kg, po administered via gavage by HPLC/MS analysis; format: ADME, organism-based; settings: in vivo
# Klebsiella pneumoniae [33] = assay: Inhibition of Klebsiella pneumoniae KP1054 VIM-1 assessed as minimum concentration of compound required to reduce the MIC of biapenem to 1 ug/ml
# Enterobacteriaceae [34] = assay: Inhibition of NDM/VIM in carbapenem-resistant Enterobacteriaceae assessed as potentiation of ceftolozane-induced antibacterial activity by measuring ceftolozane MIC50 at 8 ug/ml by broth microdilution method (Rvb > 32 ug/ml)
# Sequence of Beta-lactamase OXA-23 (Acinetobacter baumannii) (Q9L4P2 whole entry): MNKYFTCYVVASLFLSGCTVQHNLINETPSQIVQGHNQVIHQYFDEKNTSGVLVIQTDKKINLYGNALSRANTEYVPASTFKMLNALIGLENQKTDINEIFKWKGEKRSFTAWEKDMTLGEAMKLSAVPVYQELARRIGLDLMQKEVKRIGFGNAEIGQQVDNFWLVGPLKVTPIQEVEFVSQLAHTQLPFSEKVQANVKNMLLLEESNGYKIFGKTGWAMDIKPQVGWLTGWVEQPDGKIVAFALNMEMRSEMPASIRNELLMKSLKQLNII
# Sequence of Plasminogen (P00747 97-580 limits assumed): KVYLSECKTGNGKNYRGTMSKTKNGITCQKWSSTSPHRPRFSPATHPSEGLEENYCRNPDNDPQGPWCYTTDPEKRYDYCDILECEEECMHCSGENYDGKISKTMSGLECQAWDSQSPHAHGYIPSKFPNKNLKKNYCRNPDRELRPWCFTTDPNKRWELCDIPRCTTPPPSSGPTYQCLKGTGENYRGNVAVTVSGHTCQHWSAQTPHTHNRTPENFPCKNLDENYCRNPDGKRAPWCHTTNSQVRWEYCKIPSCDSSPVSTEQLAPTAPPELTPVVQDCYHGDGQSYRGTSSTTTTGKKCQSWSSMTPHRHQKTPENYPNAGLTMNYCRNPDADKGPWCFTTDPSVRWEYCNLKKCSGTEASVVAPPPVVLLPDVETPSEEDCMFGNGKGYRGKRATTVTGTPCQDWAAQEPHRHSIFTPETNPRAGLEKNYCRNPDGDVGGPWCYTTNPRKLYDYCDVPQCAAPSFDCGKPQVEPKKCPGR
# Sequence of Plasminogen (P00747 581-810 limits assumed): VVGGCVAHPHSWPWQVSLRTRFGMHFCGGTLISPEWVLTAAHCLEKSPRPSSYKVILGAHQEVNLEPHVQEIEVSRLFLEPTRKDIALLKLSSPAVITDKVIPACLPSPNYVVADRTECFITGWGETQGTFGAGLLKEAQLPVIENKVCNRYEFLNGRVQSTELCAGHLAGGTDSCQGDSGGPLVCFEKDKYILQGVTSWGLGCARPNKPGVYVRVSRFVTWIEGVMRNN
structure (smiles),measurement,setting,value
O=C(O)c1c(F)ccc2c1OB(O)[C@@H]1C[C@H]21 [XERUBORBACTAM],MIC90,Pseudomonas aeruginosa [1],8 µg/mL
same,MIC50,Acinetobacter baumannii,16 µg/mL
same,CL/F,[2],34.2 mL/min/kg
same,half-life,[3],3.65 h
same,Cmax,[4],544 µg/mL
same,MIC90,Enterobacteriaceae [5],2 µg/mL
same,Activity,[6],Non-Toxic
same,bioavailability,[7],24 to 28%
same,MIC50,Enterobacteriaceae [8],0.125 µg/mL
same,Ki,[9],0.00028 µM
same,AUC,[10],34000 ng·h/mL
same,CL/F,[11],15.2 mL/min/kg
same,MIC50,Enterobacteriaceae [12],< 0.015 µg/mL
same,MIC90,Pseudomonas aeruginosa [13],8 µg/mL
same,MEC,Escherichia coli,0.16 µg/mL
same,MIC90,Enterobacteriaceae [14],0.5 µg/mL
same,MIC90,Klebsiella pneumoniae [15],0.5 µg/mL
same,clearance,[16],4.83 mL/min/kg
same,half-life,[17],1.25 h
same,MIC50,Enterobacteriaceae [18],0.125 µg/mL
same,Activity,Klebsiella pneumoniae [19],-0.42 log10CFU
same,MIC90,Klebsiella pneumoniae [20],0.125 µg/mL
same,Cmax,[21],8.6 µg/mL
same,Activity,[22],Toxic
same,clearance,[23],8.17 mL/min/kg
same,MIC50,Enterobacterales,≤ 0.06 µg/mL
same,Activity,Klebsiella pneumoniae [24],-2.26 log10CFU
same,IC50,[25],101 µM
same,Ki,[26],0.00074 µM
same,MEC,[27],1.25 µg/mL
same,IC50,Plasminogen,> 1000 µM
same,MIC50,Enterobacteriaceae [28],0.25 µg/mL
same,half-life,[29],4.4 h
same,CL/F,[30],28.5 mL/min/kg
same,MIC50,Pseudomonas aeruginosa [31],2 µg/mL
same,half-life,[32],4 h
same,MEC,Klebsiella pneumoniae [33],0.16 µg/mL
same,MIC50,Enterobacteriaceae [34],16 µg/mL
